Data reported in US20230099441A1, “HETEROCYCLIC COMPOUND, APPLICATION THEREOF, AND COMPOSITION CONTAINING SAME” (GenEros Biopharma Ltd., priority 2019, published 2023).

Test system: STAT5 Y694 phosphorylation
Assay: Protein electrophoresis and blotting of STAT5 Y694 phosphorylation in Jurkat cells stimulated with human interferon beta
Assay type: cell-based
Conditions: for Example of Effect 1: Inhibiting Ability (Protein Electrophoresis and Blotting): observed pSTAT5 bands at 10 μM and 100 μM; for Inhibiting Ratio (0% for vehicle control): 1 hour pretreatment, 20 ng/ml human interferon beta 30 minutes, pSTAT5/GAPDH
Protocol: Example of Effect 1: Protein Electrophoresis and Blotting Experiment
Standard protein electrophoresis and chemiluminescence imaging equipment (Bio-Rad);
Protein lysate RIPA (Lianke Biological; Cat #WB020); Western blot transfer membrane PVDF (Millipore; Cat #IPVH00010);
Jurkat cells (ATCC American Standard Culture Center, TIB152) were cultured in a 6-well plate at a density of 1×10^6/ml with RPMI medium […] 10% fetal bovine serum in a humidified incubator at 37° C. and maintained at 5% carbon dioxide overnight. On the second day, the cells were pretreated with compounds of different concentrations (the mother liquor of the compound prepared by dimethyl sulfoxide was diluted in the medium at the required concentration) for 1 hour, and then stimulated with 20 ng/ml human interferon beta for 30 minutes, it was mixed thoroughly and then placed in an incubator at 37° C. environment. […] Then an appropriate volume of RIPA Lysis Solution was added, it was mixed well, and placed on ice for 1 hour, inverted and mixed several times in the middle. Then, the cell lysate was centrifuged at 12000 rpm at 4° C. for 10 minutes, and the supernatant was transferred to another test tube, aliquoted and stored at −20° C. until use.
An equal volume of protein lysate was mixed with an appropriate 6-fold protein loading buffer (Biyun Tian Biochemical Company P0015F), and the mixture was heated at 95 degrees for 10 minutes, after full denaturation, the protein sample was added to the polyacrylamide gel (self-made, raw material purchased from Soleibao Biotechnology Company A1010, 30% acrylamide solution), and electrophoresis was performed at the appropriate voltage for 1 hour, until the strips were fully separated. It was transferred to a polyvinylidene fluoride membrane according to standard procedures, and blocked with 5% skim milk for 1 hour, and the specified antibody was added, and it was diluted 1:1000 in 3% bovine serum albumin, and it was incubated overnight for four degrees. It was thoroughly rinsed, incubated with the secondary antibody, exposed to chemiluminescence and signals were collected. ImageJ software was used to quantify the obtained chemiluminescence results. The same area was selected, the gray values of STAT5 phosphorylation band and GAPDH band of each sample were analyzed, and the ratio of pSTAT5/GAPDH level was calculated. The value of the solvent-treated sample was 100%, and the remaining samples were converted into relative data in the same proportion, that is, the percentage corresponding to the solvent sample. […] The solvent control group was the same as the test compound group except that DMSO was used instead of the DMSO solution of the test compound. N1 (Pimozide) was a specific positive control.

SMILES | Example of Effect 1: Inhibiting Ability (Protein Electrophoresis and Blotting) | Inhibiting Ratio (0% for vehicle control) (1 μM) | Inhibiting Ratio (0% for vehicle control) (10 μM) | Inhibiting Ratio (0% for vehicle control) (100 μM)
CC(C)(C)c1ccc(CC(=O)N2CCC(N3CC(=O)Nc4ccccc43)CC2)cc1 [GEN1-122, 4-(1-(2-(4-(tert-butyl)phenyl)acetyl)piperidin-4-yl)-3,4-dihydroquinoxaline-2(1H)-one] | + |  |  | 
NC(=O)N(c1ccccn1)C1CCN(C(=O)Cc2ccc(C(F)(F)F)cc2)CC1 [GEN1-164, 1-(pyridin-2-yl)-1-(1-(2-(4-(trifluoromethyl)phenyl)acetyl)piperidin-4-yl)urea] | − |  |  | 
O=C(Cc1ccc2c(c1)OCO2)N1CCC(n2c(=O)[nH]c3ccccc32)CC1 [GEN1-096, 1-(1-(2-(benzo[d][1,3]dioxol-5-yl)acetyl)piperidin-4-yl)-1H-benzo[d]imidazol-2(3H)-one] | + |  |  | 
N#Cc1ccc2[nH]c(=O)n(C3CCN(C(=O)Cc4ccc(C(F)(F)F)cc4)CC3)c2c1 [GEN1-010, 2-oxo-3-(1-(2-(4-(trifluoromethyl)phenyl)acetyl)piperidin-4-yl)-2,3-dihydro-1H-benzo[d]imidazole-5-carbonitrile] | + | −29.0% | 17.5% | 94.8%
O=C(Cc1ccc(C(F)(F)F)cc1)N1CC(n2c(=O)[nH]c3ccccc32)C1 [GEN1-023, 1-(1-(2-(4-(trifluoromethyl)phenyl)acetyl)azetidin-3-yl)-1H-benzo[d]imidazole-2(3H)-one] | + | 9.4% | 33.3% | 93.6%
O=C(Cc1ccc(C(F)(F)F)cc1)NCc1ccc2c(c1)C(=O)NC2 [GEN1-084, N-((3-oxoisoindol-5-yl)methyl)-2-(4-(trifluoromethyl)phenyl)acetamide] | + |  |  | 
O=C(Cc1ccc(-c2ccccc2)cc1)N1CCC(n2c(=O)[nH]c3ccccc32)CC1 [GEN1-033, 1-(1-(2-([1,1′-biphenyl]-4-yl)acetyl)piperidin-4-yl)-1H-benzo[d]imidazole-2(3H)-one] | + | 12.8% | 7.6% | 98.0%
CCC(=O)N1CCC(n2c(=O)oc3ccccc32)CC1 [Example P1, 3-(1-propionylpiperidin-4-yl)benzo[d]oxazole-2(3H)-one] | − |  |  | 
O=C(N1CCC(n2c(=O)[nH]c3cccc(C(F)(F)F)c32)CC1)C1(c2ccc(C(F)(F)F)cc2)CC1 [GEN1-146, 7-(trifluoromethyl)-1-(1-(1-(4-(trifluoromethyl)phenyl)cyclopropane-1-carbonyl)piperidin-4-yl)-1,3-dihydro-2H-benzo[d]imidazol-2-one] | + |  |  | 
O=C(Cc1ccc(C(F)(F)F)cc1)N1CCC(n2c(=O)[nH]c3ccc(C(F)(F)F)cc32)CC1 [GEN1-009, 6-(trifluoromethyl)-1-(1-(2-(4-(trifluoromethyl)phenyl)acetyl)piperidin-4-yl)-1H-benzo[d]imidazole-2(3H)-one] | + |  |  | 
O=C(Cc1cccc(C(F)(F)F)c1)N1CCC(n2c(=O)[nH]c3ccccc32)CC1 [GEN1-029, 1-(1-(2-(3-(trifluoromethyl)phenyl)acetyl)piperidin-4-yl)-1H-benzo[d]imidazole-2(3H)-one] | + | −74.1% | −67.7% | 92.3%
O=C(Cc1ccc(O)cc1)N1CCC(n2c(=O)[nH]c3ccccc32)CC1 [GEN1-071, 1-(1-(2-(4-hydroxyphenyl)acetyl)piperidin-4-yl)-1H-benzo[d]imidazol-2(3H)-one] | − |  |  | 
O=C1Nc2ccccc2C1C1CCN(C(=O)Cc2ccc(C(F)(F)F)cc2)CC1 (stereo not shown) [GEN1-051, 3-(1-(2-(4-(trifluoromethyl)phenyl)acetyl)piperidin-4-yl)indol-2-one] | + |  |  | 
O=c1oc2ccccc2n1-c1ccn2c(=O)cc(Cc3ccc(F)cc3)cc2c1 [Example P9, 3-(2-(4-fluorobenzyl)-4-oxo-4H-quinazine-8-yl)benzo[d]oxazole-2(3H)-one] | − |  |  | 
O=C(Cc1ccc(C(F)(F)F)cc1)N[C@H]1CC[C@@H](n2c(=O)[nH]c3ccccc32)CC1 [GEN1-021, Cis-N-(4-(2-oxo-2,3-dihydro-1H-benzo[d]imidazol-1-yl)cyclohexyl)-2-(4-(trifluoromethyl)phenyl)acetamide] | + | −39.8% | −26.3% | 97.6%
O=C1CN(C2CCN(C(=O)Cc3ccc4ncccc4c3)CC2)c2ccccc2N1 [GEN1-120, 4-(1-(2-(quinolin-6-yl)acetyl)piperidin-4-yl)-3,4-dihydroquinoxaline-2(1H)-one] | − |  |  | 
O=C(Cc1ccccc1)N1CCC(n2c(=O)[nH]c3ccccc32)CC1 [Example X4, 1-(1-(2-phenylacetyl)piperidin-4-yl)-1H-benzo[d]imidazole-2(3H)-one] | − | 21.2% | 5.3% | 87.8%
O=C1CCN(C2CCN(C(=O)Cc3ccc(C(F)(F)F)cc3)CC2)c2ccccc2N1 [GEN1-102, 5-(1-(2-(4-(trifluoromethyl)phenyl)acetyl)piperidin-4-yl)-4,5-dihydro-1H-benzo[b][1,4]diazepine-2(3H)-one] | + |  |  | 
O=C(Cc1ccc(C(F)(F)F)cc1)N1CCC(n2c(=O)[nH]c3cccnc32)CC1 [GEN1-044, 3-(1-(2-(4-(trifluoromethyl)phenyl)acetyl)piperidin-4-yl)-1H-imidazo[4,5-b]pyridin-2(3H)-one] | + |  |  | 
O=C(Cc1ccc(C(F)(F)F)nc1)N1CCC(n2c(=O)[nH]c3ccccc32)CC1 [GEN1-027, 1-(1-(2-(6-(trifluoromethyl)pyridin-3-yl)acetyl)piperidin-4-yl)-1H-benzo[d]imidazole-2(3H)-one] | + |  |  | 
O=C(CCc1ccc(C(F)(F)F)cc1)N1CCC(n2c(=O)[nH]c3ccccc32)CC1 [GEN1-018, 1-(1-(3-(4-(trifluoromethyl)phenyl)propionyl)piperidin-4-yl)-1H-benzo[d]imidazole-2(3H)-one] | + | −36.5% | −6.2% | 98.6%
CC(C)(C)c1ccc(CC(=O)N2CCC(n3c(=O)[nH]c4cccc(C(F)(F)F)c43)CC2)cc1 [GEN1-115, 1-(1-(2-(4-(tert-butyl)phenyl)acetyl)piperidin-4-yl)-7-(trifluoromethyl)-1^1H-benzo[d]imidazol-2(3H)-one] | + |  |  | 
O=c1c2ccc(-n3c(=O)[nH]c4ccccc43)cc2ccn1-c1ccc(C(F)(F)F)cc1 [GEN1-086, 6-(2-oxo-2,3-dihydro-1H-benzo[d]imidazol-1-yl)-2-(4-(trifluoromethyl)phenyl)isoquinoline-1(2H)-one] | − |  |  | 
COc1ccc2c(c1)[nH]c(=O)n2C1CCN(C(=O)Cc2ccc(C(F)(F)F)cc2)CC1 [GEN1-007, 5-methoxy-1-(1-(2-(4-(trifluoromethyl)phenyl)acetyl)piperidin-4-yl)-1H-benzo[d]imidazole-2(3H)-one] | + | 42.4% | 54.8% | 96.6%
O=C(Cc1ccc(C2CC2)cc1)N1CCC(n2c(=O)[nH]c3ccccc32)CC1 [GEN1-032, 1-(1-(2-(4-cyclopropylphenyl)acetyl)piperidin-4-yl)-1H-benzo[d]imidazole-2(3H)-one] | + | −16.3% | 13.8% | 94.9%
